Data: ChEMBL document CHEMBL1914411, “Synthesis of lipophilic dimeric C-7/C-7-linked ciprofloxacin and C-6/C-6-linked levofloxacin derivatives. Versatile in vitro biological evaluations of monomeric and dimeric fluoroquinolone derivatives as potential antitumor, antibacterial or antimycobacterial agents” (Eur J Med Chem, 2011)
≈ marks a conversion by molar mass, not a printed value. Calls of active or inactive are those of the source. No rule for the calls is given here.

How the values were obtained:
Staphylococcus aureus [1] = test: Antimicrobial activity against multidrug-resistant Staphylococcus aureus isolate 2 after 18 to 24 hrs by broth microdilution method; assay type: functional
Staphylococcus aureus [2] = test: Antimicrobial activity against methicillin-resistant Staphylococcus aureus ATCC 33592 after 18 to 24 hrs by broth microdilution method; assay type: functional
Pseudomonas aeruginosa = test: Antimicrobial activity against Pseudomonas aeruginosa CIP 82.118 after 18 to 24 hrs by broth microdilution method; assay type: functional
[3] = test system: Mycobacterium tuberculosis; test: Antimycobacterial activity against Mycobacterium tuberculosis H37Rv assessed as growth inhibition at 0.1 uM after 6 days by MTT colorimetric microassay; assay type: functional, organism-based
Staphylococcus aureus [4] = test: Antimicrobial activity against multidrug-resistant Staphylococcus aureus isolate 1 after 18 to 24 hrs by broth microdilution method; assay type: functional
Staphylococcus aureus [5] = test: Antimicrobial activity against Staphylococcus aureus CIP 4.83 after 18 to 24 hrs by broth microdilution method; assay type: functional
Enterococcus hirae = test: Antimicrobial activity against Enterococcus hirae CIP 5855 after 18 to 24 hrs by broth microdilution method; assay type: functional
Escherichia coli = test: Antimicrobial activity against Escherichia coli CIP 53126 after 18 to 24 hrs by broth microdilution method; assay type: functional
Staphylococcus aureus [6] = test: Antimicrobial activity against methicillin-resistant Staphylococcus aureus ATCC 33591 after 18 to 24 hrs by broth microdilution method; assay type: functional

| Structure (SMILES) | MBC (Staphylococcus aureus [1]) [µM] | MIC (Staphylococcus aureus [1]) [µM] | MBC (Staphylococcus aureus [2]) [µM] | MIC (Staphylococcus aureus [2]) [µM] | MBC (Pseudomonas aeruginosa) [µM] | MIC (Pseudomonas aeruginosa) [µM] | growth inhibition (GI) [3] | MBC (Staphylococcus aureus [4]) [µM] | MIC (Staphylococcus aureus [4]) [µM] | MBC (Staphylococcus aureus [5]) [µM] | MIC (Staphylococcus aureus [5]) [µM] | MBC (Enterococcus hirae) [µM] | MIC (Enterococcus hirae) [µM] | MBC (Escherichia coli) [µM] | MIC (Escherichia coli) [µM] | MBC (Staphylococcus aureus [6]) [µM] | MIC (Staphylococcus aureus [6]) [µM] |
| --- | --- | --- | --- | --- | --- | --- | --- | --- | --- | --- | --- | --- | --- | --- | --- | --- | --- |
| CC(=O)OCC(=O)N1CCN(c2cc3c(cc2F)c(=O)c(C(=O)O)cn3C2CC2)CC1 | 125 (≈ 53.9 µg/mL) | 125 (≈ 53.9 µg/mL) | 1.9 (≈ 0.82 µg/mL) | 0.97 (≈ 0.418 µg/mL) | 250 (≈ 108 µg/mL) | 62.5 (≈ 27 µg/mL) | inactive | 500 (≈ 216 µg/mL) | 125 (≈ 53.9 µg/mL) | ≤ 0.97 | ≤ 0.97 | 15.6 (≈ 6.73 µg/mL) | 15.6 (≈ 6.73 µg/mL) | 15.6 (≈ 6.73 µg/mL) | 7.8 (≈ 3.37 µg/mL) | 3.9 (≈ 1.68 µg/mL) | 3.9 (≈ 1.68 µg/mL) |
| CCCCCCNC(=O)c1cn2c3c(c(N4CCN(C)CC4)c(F)cc3c1=O)OC[C@@H]2C | – | – | – | – | 250 (≈ 111 µg/mL) | 62.5 (≈ 27.8 µg/mL) | inactive | – | – | 250 (≈ 111 µg/mL) | 250 (≈ 111 µg/mL) | 250 (≈ 111 µg/mL) | 125 (≈ 55.6 µg/mL) | 500 (≈ 222 µg/mL) | 125 (≈ 55.6 µg/mL) | – | – |
| O=C(CCCCCCCCCCCCCCC(=O)OCN1CCN(c2cc3c(cc2F)c(=O)c(C(=O)O)cn3C2CC2)CC1)OCN1CCN(c2cc3c(cc2F)c(=O)c(C(=O)O)cn3C2CC2)CC1 | 500 (≈ 487 µg/mL) | 125 (≈ 122 µg/mL) | 1.9 (≈ 1.85 µg/mL) | 0.97 (≈ 0.944 µg/mL) | 250 (≈ 243 µg/mL) | 62.5 (≈ 60.8 µg/mL) | inactive | 500 (≈ 487 µg/mL) | 125 (≈ 122 µg/mL) | ≤ 0.97 | ≤ 0.97 | 62.5 (≈ 60.8 µg/mL) | 31.2 (≈ 30.4 µg/mL) | 15.6 (≈ 15.2 µg/mL) | 7.8 (≈ 7.59 µg/mL) | 15.6 (≈ 15.2 µg/mL) | 7.8 (≈ 7.59 µg/mL) |
| O=C(O)c1cn(C2CC2)c2cc(N3CCN(C(=O)CO)CC3)c(F)cc2c1=O | 62.5 (≈ 24.3 µg/mL) | 62.5 (≈ 24.3 µg/mL) | 1.9 (≈ 0.74 µg/mL) | 0.24 (≈ 0.0935 µg/mL) | 250 (≈ 97.3 µg/mL) | 15.6 (≈ 6.07 µg/mL) | inactive | > 500 | 125 (≈ 48.7 µg/mL) | 1.9 (≈ 0.74 µg/mL) | ≤ 0.97 | 7.8 (≈ 3.04 µg/mL) | 7.8 (≈ 3.04 µg/mL) | 1.9 (≈ 0.74 µg/mL) | ≤ 0.97 | 1.9 (≈ 0.74 µg/mL) | 0.97 (≈ 0.378 µg/mL) |
| CCCCCCCCCCCCCCCC(=O)OCC(=O)N1CCN(c2cc3c(cc2F)c(=O)c(C(=O)O)cn3C2CC2)CC1 | – | – | – | – | 250 (≈ 157 µg/mL) | 125 (≈ 78.5 µg/mL) | inactive | – | – | 500 (≈ 314 µg/mL) | 62.5 (≈ 39.2 µg/mL) | 500 (≈ 314 µg/mL) | 125 (≈ 78.5 µg/mL) | 500 (≈ 314 µg/mL) | 125 (≈ 78.5 µg/mL) | – | – |
| CCCCCCCCCCCCOC(=O)N1CCN(c2cc3c(cc2F)c(=O)c(C(=O)O)cn3C2CC2)CC1 | – | – | – | – | 125 (≈ 68 µg/mL) | 125 (≈ 68 µg/mL) | inactive | – | – | 125 (≈ 68 µg/mL) | 125 (≈ 68 µg/mL) | 500 (≈ 272 µg/mL) | 62.5 (≈ 34 µg/mL) | 250 (≈ 136 µg/mL) | 125 (≈ 68 µg/mL) | – | – |
| O=C(CCCCCCCCCCC(=O)OCN1CCN(c2cc3c(cc2F)c(=O)c(C(=O)O)cn3C2CC2)CC1)OCN1CCN(c2cc3c(cc2F)c(=O)c(C(=O)O)cn3C2CC2)CC1 | 250 (≈ 229 µg/mL) | 62.5 (≈ 57.3 µg/mL) | 0.48 (≈ 0.44 µg/mL) | 0.24 (≈ 0.22 µg/mL) | 125 (≈ 115 µg/mL) | 62.5 (≈ 57.3 µg/mL) | inactive | 250 (≈ 229 µg/mL) | 125 (≈ 115 µg/mL) | ≤ 0.97 | ≤ 0.97 | 31.2 (≈ 28.6 µg/mL) | 31.2 (≈ 28.6 µg/mL) | 62.5 (≈ 57.3 µg/mL) | 31.2 (≈ 28.6 µg/mL) | 3.9 (≈ 3.58 µg/mL) | 1.9 (≈ 1.74 µg/mL) |
| CC(C)(C)OC(=O)N1CCN(c2cc3c(cc2F)c(=O)c(C(=O)O)cn3C2CC2)CC1 | 31.2 (≈ 13.5 µg/mL) | 15.6 (≈ 6.73 µg/mL) | 0.48 (≈ 0.207 µg/mL) | 0.12 (≈ 0.0518 µg/mL) | 250 (≈ 108 µg/mL) | 15.6 (≈ 6.73 µg/mL) | inactive | 500 (≈ 216 µg/mL) | 31.2 (≈ 13.5 µg/mL) | ≤ 0.24 | ≤ 0.12 | 15.6 (≈ 6.73 µg/mL) | 15.6 (≈ 6.73 µg/mL) | 1.9 (≈ 0.82 µg/mL) | 1.9 (≈ 0.82 µg/mL) | 0.48 (≈ 0.207 µg/mL) | 0.06 (≈ 0.0259 µg/mL) |
| O=C(O)c1cn(C2CC2)c2cc(N3CCN(C(=O)CCCCCCCCCCC(=O)N4CCN(c5cc6c(cc5F)c(=O)c(C(=O)O)cn6C5CC5)CC4)CC3)c(F)cc2c1=O | 500 (≈ 428 µg/mL) | 125 (≈ 107 µg/mL) | 1.9 (≈ 1.63 µg/mL) | 0.12 (≈ 0.103 µg/mL) | 250 (≈ 214 µg/mL) | 62.5 (≈ 53.6 µg/mL) | inactive | 500 (≈ 428 µg/mL) | 125 (≈ 107 µg/mL) | ≤ 0.97 | ≤ 0.12 | 500 (≈ 428 µg/mL) | 125 (≈ 107 µg/mL) | 62.5 (≈ 53.6 µg/mL) | 62.5 (≈ 53.6 µg/mL) | 3.9 (≈ 3.34 µg/mL) | 0.48 (≈ 0.411 µg/mL) |
| CCCCCCCCCCCCCC(=O)N1CCN(c2cc3c(cc2F)c(=O)c(C(=O)O)cn3C2CC2)CC1 | – | – | – | – | 250 (≈ 135 µg/mL) | 125 (≈ 67.7 µg/mL) | inactive | – | – | 125 (≈ 67.7 µg/mL) | 125 (≈ 67.7 µg/mL) | 250 (≈ 135 µg/mL) | 62.5 (≈ 33.9 µg/mL) | 500 (≈ 271 µg/mL) | 125 (≈ 67.7 µg/mL) | – | – |
| CCOC(=O)N1CCN(c2cc3c(cc2F)c(=O)c(C(=O)O)cn3C2CC2)CC1 | 125 (≈ 50.4 µg/mL) | 62.5 (≈ 25.2 µg/mL) | 1.9 (≈ 0.766 µg/mL) | 0.48 (≈ 0.194 µg/mL) | 250 (≈ 101 µg/mL) | 62.5 (≈ 25.2 µg/mL) | inactive | 500 (≈ 202 µg/mL) | 125 (≈ 50.4 µg/mL) | ≤ 0.97 | ≤ 0.97 | 3.9 (≈ 1.57 µg/mL) | 3.9 (≈ 1.57 µg/mL) | 31.2 (≈ 12.6 µg/mL) | 7.8 (≈ 3.15 µg/mL) | 1.9 (≈ 0.766 µg/mL) | 0.97 (≈ 0.391 µg/mL) |
